Legend:
NL-G-F(−/−) mice = test: Hippocampus function-dependent fear conditioning test in NL-G-F(−/−) mice; assay type: in vivo, mouse; details: perampanel alone 5 mg/kg or 10 mg/kg
Description: Contextual fear conditioning was applied with slight modifications to published protocols (50). Mice were transferred to the animal experimental room and allowed to acclimatize for at least 30 minutes prior to contextual fear conditioning training. Next, the mice were placed in a foot shock system model MK-450 MSQ (Muromachi Kikai Co., Ltd., Japan), searching was performed for 2 minutes, and then 3 electric foot shocks (0.8 mA, 2 sec, 2 min interval) were performed. After mice were left in the apparatus for an additional 1 minute, the animals were removed.
NL-G-F(−/−) mice, a dementia model, were administered with memantine (mema), exercise, memantine and exercise, memantine and perampanel, and perampanel alone (5 mg/kg or 10 mg/kg), and subjected to behavioral experiments. As the behavior test, a novel object recognition test and a hippocampus function-dependent fear conditioning test were performed. Memantine is an antagonist of the NMDA receptor, but has distinct properties from other NMDA receptor antagonists (refer to Hokama Y., et al., Neuro Oncology, 2022, noac162). That is, memantine is a drug that works only when glutamic acid is excessively present in the brain.

[1] = system: Ca2+ permeable AMPAR (CP-AMPAR); test: Ca2+ imaging (Fluo-3) of hippocampal brain slices, AMPA + CTZ application (CP-AMPA reaction); assay type: cell-based, mouse
NMDA receptor (NMDAR) = test: Ca2+ imaging (Fluo-3) of hippocampal brain slices, NMDA + glycine application (NMDA reaction); assay type: cell-based, mouse; details: for function of NMDAR in EC, CA1, CA2, CA3 and DG: leptin 100 nM

Compound: CC12CC3CC(C)(C1)CC(N)(C3)C2 [memantine]
- cognitive function in hippocampus function-dependent fear conditioning test (NL-G-F(−/−) mice): improvement in cognitive function

Compound: NCCCNCCCCNCCCNC(=O)Cc1cccc2ccccc12 [NASPM, N-[3-[[4-[(3-aminopropyl)amino]butyl]amino]propyl]-1-naphthaleneacetamide]
- increase in [Ca2+]i via AMPAR [1]: completely repressed
- increase in [Ca2+]i via pathological AMPARs [1]: disappeared
- inhibitory effect on CP-AMPAR in EC, CA1, CA2, CA3 and DG [1]: significant inhibitory effect

Compound: CC(=O)OCOC(=O)CN(CC(=O)OCOC(C)=O)c1ccccc1OCCOc1ccccc1N(CC(=O)OCOC(C)=O)CC(=O)OCOC(C)=O [BAPTA-AM]
- NMDA receptor reactivity to NMDA (50 μM) and glycine (10 μM) (NMDA receptor (NMDAR); brain slices of 2 w HFD mice treated 60 min with 3 μM BAPTA-AM, n=3): restoration of reactivity

Compound: leptin: a hormone that regulates energy expenditure
- function of NMDAR in EC, CA1, CA2, CA3 and DG (NMDA receptor (NMDAR); HFD mice orally administered PER): significantly enhanced
- function of NMDAR in EC, CA1, CA2, CA3 and DG (NMDA receptor (NMDAR); ob/ob mice orally administered PER): significantly enhanced

Compound: N[C@H](CCCP(=O)(O)O)C(=O)O [APV, D-(−)-2-amino-5 phosphonovaleric acid]
- NMDA receptor reactivity to NMDA and glycine (NMDA receptor (NMDAR); 2 w HFD slices under calcium ion-free (0 mM Ca) conditions, in the presence of APV): disappeared
- NMDA receptor reactivity to NMDA and glycine (NMDA receptor (NMDAR); BAPTA-AM-treated 2 w HFD slices, APV 50 μM simultaneously with NMDA and glycine): abolished

Compound: Cc1cn2c(n1)Cc1ccc(Cl)cc1C(c1ccc(N)cc1)=N2 [GYKI 47261]
- increase in [Ca2+]i via AMPAR [1]: completely repressed
- increase in [Ca2+]i via pathological AMPARs [1]: disappeared
- inhibitory effect on CP-AMPAR in EC, CA1, CA2, CA3 and DG [1]: significant inhibitory effect

Compound: C[C@H](CCC(=O)O)C[C@H](C)C[C@H](C)C(=O)/C=C(\O)[C@H](C)C[C@H](C)C/C=C/[C@@H](C)[C@@H](O)[C@@H](C)[C@@H](O)C[C@@H]1CC[C@@](C)([C@H]2CC[C@@](C)([C@@H](C)O)O2)O1 [ionomycin]
- NMDA receptor reactivity due to addition of NMDA and glycine (NMDA receptor (NMDAR); slices of 14 to 16 week old mice on normal diet, 2 mM Ca2+, pretreated with 1 μM ionomycin for 10 min, n=4): disappeared

From patent US20240398775A1, “PHARMACEUTICAL COMPOSITION FOR USE IN TREATING COGNITIVE DECLINE OR FOR USE IN TREATING OVERWEIGHT OR OBESITY” (University of the Ryukyus, priority 2021, published 2024)
